In paper PMC6316436, “Design of Linear and Cyclic Mutant Analogues of Dirucotide Peptide (MBP82–98) against Multiple Sclerosis: Conformational and Binding Studies to MHC Class II” (Brain Sciences, 2018):
“Also recorded” adds a separate entry of the source. Like-named read-outs stand apart in the source and are kept apart here. Ends that are not written are not given here.

Tests used:
HLA-DR2 = test: Competition binding of MBP82–98 analogues to HLA-DR2 (AMCA-labeled MBP83–99 competitor); set-up: species or system human; conditions: 37 °C; for binding affinity to HLA-DR2 (competition), in words: triplicates
HLA-DR4 = test: Competition binding of MBP82–98 analogues to HLA-DR4 (AMCA-labeled HA306–318 competitor); set-up: species or system human; conditions: 37 °C; for binding to HLA-DR4, overall statement: competition with AMCA-labeled HA306–318, 48 h, pH 6.0
autoreactive T cells = conditions: intravenous injections, preclinical and clinical studies; ref [15]; cited from earlier work
Source text: Dirucotide is licensed to BioMS Medical Corp and shared the development with Eli Lilly and Company. […] Thus, in the populat ...

[1] = test system: CD4^+CD25^+Foxp3^+ regulatory T cells; conditions: ref [18], cited from earlier work
Source text: (§1) Dirucotide is licensed to BioMS Medical Corp and shared the development with Eli Lilly and Company. […] As a result, further planned/scheduled clinical trials were terminated. […] It is likely that ...

patients with MS = conditions: ref [16], cited from earlier work
Source text: as §1

[2] = test system: patients with relapsing remitting MS and secondary progressive MS; conditions: phase III, cited from earlier work
Source text: as §1

[3] = test system: experimental autoimmune encephalomyelitis (EAE); conditions: compared to linear PLP139–151 peptide; ref [30]; cited from earlier work
Source text: The cyclization of peptides is of great interest, since the partial stability of linear peptides restricts them as potential therapeutics. We have extensively studied cyclic peptides for their enhanced stability and their potential to be used as immunotherapeutics in MS due to their altered three-dimensional conformation. […] Similarly, cyclization of the agonist proteolipid protein (PLP139–151) epit ...

[4] = phase II, HLA-DR2 and HLA-DR4 patients with MS

## DENPVVHFFA^91NIVTPRT [linear MBP82–98 (Ala^91), linear altered peptide ligand of dirucotide, K91 mutated to Ala]
HLA-DR2; 10-fold and 20-fold excess, AMCA-labeled MBP83–99, 48 h, pH 6.0, HPSEC fluorescence, relative to linear agonist MBP82–98
  binding affinity to HLA-DR2 (competition), in words: bound with much lower affinity
HLA-DR2; 50-fold excess, AMCA-labeled MBP83–99, 48 h, pH 6.0, HPSEC fluorescence
  binding affinity to HLA-DR2 (competition), in words: comparable to linear agonist MBP82–98 peptide at 50-fold excess
HLA-DR4
  binding to HLA-DR4, overall statement: considerable higher affinity than cyclic MBP82–98

## DENPVVHFFK^91NIVTPRT [dirucotide, 17-mer linear peptide MBP82–98]
Autoreactive T cells
  suppression of autoreactive T cells: suppress autoreactive T cells
[1]; following injection in patients with MS
  induction of CD4+CD25+Foxp3+ regulatory T cells: induce CD4^+CD25^+Foxp3^+ regulatory T cells
[1]; six weeks and six months after treatment
  number of CD4+CD25+Foxp3+ regulatory T cells: increase in the number of CD4^+CD25^+Foxp3^+ regulatory T cells
Patients with MS; injected in high concentrations in patients with MS
  T cell responses against MBP82–98 epitope: suppressed T cell responses against MBP82–98 epitope
Patients with MS; [4]
  safety: safe
  time to disease progression: prolonged the median time to disease progression
Patients with MS; phase II, HLA-DR2 and HLA-DR4 patients with MS, listed as Dirucotide
  time to disease progression: delayed disease progression
[2]; 612 subjects, ref [17]
  benefit versus placebo: did not provide any benefit compared to placebo
  primary and secondary endpoints: no enhanced primary and secondary endpoints achieved
[2]; relapsing remitting MS and secondary progressive MS, ref [17],[18]
  benefit versus placebo: no added benefit was noted compared to the placebo group

## cyclic PLP139–151: cyclized agonist proteolipid protein (PLP139–151) epitope (CHCLGKWLGHPDK; also: cyclized; UniProt P60202 139-151, looked up, fragment)
[3]
  disease burden and pathology: low disease burden, and minimal inflammatory, demyelinating, and axonopathic pathology compared to the linear PLP139–151 peptide

## cycloDENPVVHFFK^91NIVTPRT (head to tail) [cyclic MBP82–98, head to tail cyclized dirucotide]
HLA-DR2; 10-fold, 20-fold and 50-fold excess over AMCA-labeled MBP83–99 (1 μM), 48 h, 150 mM sodium phosphate pH 6.0, 15% acetonitrile, 0.1% Zwittergent-12, HPSEC fluorescence 350/450 nm
  binding affinity to HLA-DR2 (competition), in words: reduced affinity compared to its linear counterpart at 10-fold, 20-fold and 50-fold excess, but still with comparable affinity
HLA-DR2; overall, competition with AMCA-labeled MBP83–99, 48 h, pH 6.0
  binding to HLA-DR2, overall statement: strong binder with the HLA-DR2 allele; also recorded: binds to HLA-DR2 and HLA-DR4 alleles with considerable affinity; also recorded: higher affinity than MBP82–98 (A^91)
HLA-DR4; 10-fold, 20-fold, 50-fold excess over AMCA-labeled HA306–318 (1 μM), 48 h, 150 mM sodium phosphate pH 6.0, 15% acetonitrile, 0.1% Zwittergent-12, HPSEC fluorescence 350/450 nm, triplicates
  binding affinity to HLA-DR4 (competition), in words: considerably lower compared to its linear counterpart and linear APL MBP82–98 (Ala^91)
HLA-DR4
  binding to HLA-DR4, overall statement: lower affinity binding to the HLA-DR4 allele; also recorded: binds to HLA-DR2 and HLA-DR4 alleles with considerable affinity
